# Values joined by “and” are separate entries in the source; they are usually repeats but may differ in a detail not shown here. Equal values may be shown once.
# Experiments:
# [1] = test system: randomly selected Chinese patients receiving warfarin; assay: Warfarin maintenance dose and INR in 104 randomly selected Chinese patients receiving warfarin, by VKORC1 -1639 genotype; format: in vivo, human
# Protocol: (§1) Clinical information (including age, sex, weight, and average daily maintenance dose) was obtained from every participant.
# Briefly, primers and probes were designed using the Spectro[…] software (Sequenom). Multiplex PCR was performed, and unincorporated dNTPs were dephosphorylated using shrimp alkaline phosphatase (Hoffman-LaRoche, Basel, Switzerland), followed by primer extension. The purified primer extension reactions were spotted onto a 384-element silicon chip (SpectroCHIP, Sequenom), analyzed in the Bruker Biflex III MALDI-TOF SpectroREADER mass spectrometer (Sequenom), and the resulting spectrum was processed with SpectroTYPER (Sequenom).
# We analyzed the data regardless of the presence of other confounding variables, such as diet or other medications.
# [2] = test system: Han Chinese patients having warfarin sensitivity and resistance; assay: Warfarin maintenance dose and INR in selected Chinese patients with warfarin sensitivity or resistance, by VKORC1 -1639 genotype; format: in vivo, human; settings: for Dose: individual patients; for dose requirements, mean / dose requirements, range: selected patients
# Source text: as §1
# Primers were specifically designed for the intron-exon junctions, exons and 2 kbps upstream of the transcription start site for both CYP2C9 and VKORC1 using the Primer3 PCR primer program (http://fokker.wi.mit.edu/cgi-bin/primer3/primer3_www.cgi). The primers used to detect variants in the VKORC1 promoter were: 5′-[…] (SEQ ID NO:2; sense strand located 1.5 kb upstream of the transcription start site) and 5′-[…] (SEQ ID NO:3; anti-sense strand located 0.9 kb upstream of the transcription start site). The polymerase chain reactions (PCR) were performed in a final volume of […] containing 0.4 μM of each primer, 10 mM Tris-HCl (pH8.3), 50 mM KCl, 1.5 mM MgCl2, 0.2 mM dNTPs and 1 unit HotStart Taq™ (Qiagen Inc, Valencia, Calif., USA). Amplification conditions consisted of an initial denaturation of 12 min at 96° C., followed by 34 PCR cycles in 30 sec at 96° C., 30 sec at 60° C., 40 sec at 72° C.
# The variants were: 1075 A>C (1359L known as CYP2C9*3), 895 A>G (T299A), and 1145 C>T (P382L).
# We also sequenced the promoter, coding regions, and the exon-intron junctions of the VKORC1 gene.
# [3] = heterozygous AG at VKORC1 -1639
structure (smiles),measurement,setting,value
"CC(=O)CC(c1ccccc1)c1c(O)c2ccccc2oc1=O (racemic) [warfarin, 4-hydroxy-3-(3-oxo-1-phenylbutyl)-2H-1-benzopyran-2-one]","warfarin dose, upper limit observed",[1]; none of the randomly selected patients had a greater dose,≤ 6 mg/day
same,maintenance dose,"[1]; randomly selected patients, AA genotype",2.61+/−1.10 my/day
same,"Warfarin dose,","[1]; randomly selected patients, VKORC1 -1639 AG + GG (n = 21), mean ± SD",3.81 ± 1.24 mg/day and 3.81 mg/day
same,Dose,"[2]; VKORC1 -1639 AA, warfarin sensitive group (dose ≦1.5 mg/day), average daily maintenance dose",1.43 mg/d and 1.5 mg/d and 0.71 mg/d and 1 mg/d (2×)
same,Dose,"[2]; VKORC1 -1639 AG, warfarin resistant group (dose ≧6 mg/day)",6.07 mg/day and 10 mg/day
same,Dose,"[2]; VKORC1 -1639 GG, warfarin resistant group (dose ≧6 mg/day)",8.57 mg/day and 8.75 mg/day and 10 mg/day
same,"dose requirements, mean",[2]; AA genotype at VKORC1 -1639,1.19 mg/day
same,"dose requirements, range",[2]; AA genotype at VKORC1 -1639,0.71 to 1.50 mg/day
same,"dose requirements, mean",[2]; [3],8.04 mg/day
same,"dose requirements, range",[2]; [3],6.07 to 10 mg/day
same,"dose requirements, mean",[2]; homozygous GG at VKORC1 -1639,9.11 mg/day
same,"dose requirements, range",[2]; homozygous GG at VKORC1 -1639,8.57 to 10 mg/day

# Source: patent US20110236885A1 (Academia Sinica, priority 2004, published 2011)
